Experimental findings from patent US20260176262A1, “KRAS INHIBITORS, PREPARATION METHOD THEREFOR, AND PHARMACEUTICAL USE THEREOF” (ABBISKO THERAPEUTICS CO., LTD., priority 2021, published 2026) are described below.

Like-named read-outs stand apart in the source and are kept apart here.

In one data set the test system is AGS cell. Put plainly: Anti-proliferative 2D CTG assay, AGS cells. As to conditions: Homo sapiens, 72 h. The class given is cell-based. The procedure, abridged: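 Cells seeded at 1000/well overnight, then treated with 10-point 1:5 dilutions ([…], 0.1% DMSO) for 3 days at 37° C. Viability read by CellTiter-Glo luminescence; % inhibition versus HPE/ZPE controls, IC50 from four-parameter fit.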

Data set [1] in a line: Pharmacokinetic experiment in mice. As to conditions: male, ICR, mouse, plasma.
Description: (§1) ICR mice male N=3 original source: Shanghai Sippr-Bk Lab Animal Co., Ltd.
(§2) Single oral (PO) administration in ICR mice: The compounds were weighed and added to the solvent of 0.5% CMC+1% Tween 80 respectively, well shaken, and ultrasonicated to get a light yellow suspension. 3 mice were administered orally after fasting overnight. The dose was 10 mg/kg.
(§3) About 90 μL/timepoint blood was collected through the orbital cavity, anticoagulated with sodium heparin, placed on ice after collection, and centrifuged to separate the plasma within 1 hour (centrifugation conditions: 8000 rpm, 6 m 2-8C). The blood collection timepoints were 0, 0.25, 0.5, 1, 2, 4, 6, 8 and 24 h. The samples were stored in a −20° C. refrigerator.
(§4) The plasma sample was 40 μL, 160 μL of ice-cold acetonitrile containing internal standard was added, vortexed for 1 minute, and centrifuged at 18,000 rpm for 10 minutes. The supernatant was transferred to a 96-well plate, and 5 μL was injected into LC-MS/MS for analysis.
The next data set concerns the target KRAS^G12D/cRAF (Homo sapiens, UniProt P01116, G12D). Put plainly: KRAS G12D/cRAF binding test (Alphalisa). As to conditions: His-tagged KRAS G12D + GMPPNP, GST-tagged cRAF. The procedure, abridged: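 His-tagged KRAS G12D loaded with GMPPNP was incubated with compound (8-point 3-fold series from 5 mM DMSO stock) and then GST-cRAF for 15 min at room temperature. AlphaLISA detection followed after 60 min. IC50 came from a four-parameter fit of signal ratios against the DMSO control.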
On the technique in general: Alpha assays give light when donor and acceptor beads are brought close together.

A further data set in a line: in vivo. As to conditions: male, ICR, mouse, po, 10 mg/kg.
Setting [2] is: AGS cells, incubated 3 days, CTG, class symbols, read-out: AGS cell IC50.
[3] abbreviates: AGS cells, incubated 3 days, CTG, numeric values, read-out: AGS cell IC50.

Chain of KRAS^G12D/cRAF (P01116 1-188 isoform P01116-2 G12D): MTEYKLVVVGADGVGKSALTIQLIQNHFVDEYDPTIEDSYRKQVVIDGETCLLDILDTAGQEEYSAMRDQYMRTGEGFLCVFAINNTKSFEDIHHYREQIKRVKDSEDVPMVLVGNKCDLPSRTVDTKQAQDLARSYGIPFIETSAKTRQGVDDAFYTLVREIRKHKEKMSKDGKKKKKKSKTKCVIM
Description for in vivo: as §1, §2, §3, §4

In the case of `C#Cc1c(F)ccc2cc(O)cc(-c3ncc4c(N5C[C@H]6CC[C@@](CCF)(C5)N6)nc(OC[C@@]56CCCN5C[C@H](F)C6)nc4c3F)c12` [Example 55, 5-ethynyl-6-fluoro-4-(8-fluoro-4-((1R,5R)-1-(2-fluoroethyl)-3,8-diazabicyclo[3.2.1]octan-3-yl)-2-(((2R,7aS)-2-fluorotetrahydro-1H-pyrrolizin-7a(5H)-yl)methoxy)pyrido[4,3-d]pyrimidin-7-yl)naphthalen-2-ol], in the data set on AGS cell (setting [2]), the IC50 lay within 50 to 500 nM. In data set [1] (po, 10 mg/kg), this compound had an area under the curve AUC(0-t) of 296 ng·h/mL and a half-life of 7.4 h.

With `[2H]C([2H])([2H])OC[C@@]12CC[C@@H](CN(c3nc(OC[C@@]45CCCN4C[C@H](F)C5)nc4c(F)c(-c5cc(O)cc6ccc(F)c(C#C)c56)nc(OC)c34)C1)N2` [Example 50, 5-ethynyl-6-fluoro-4-(8-fluoro-2-(((2R,7aS)-2-fluorotetrahydro-1H-pyrrolizin-7a(5H)-yl)methoxy)-5-methoxy-4-((1R,5S)-1-((methoxy-d3)methyl)-3,8-diazabicyclo[3.2.1]octan-3-yl)pyrido[4,3-d]pyrimidin-7-yl)naphthalen-2-ol], the values for the IC50 at KRAS^G12D/cRAF (numeric values) and in the data set with AGS cell (setting [3]) were 10 nM and 6.5 nM, respectively. Besides, the area under the curve AUC(0-t) in data set [1] (iv, 2 mg/kg) came out at 1100 ng·h/mL; in data set [1] (po, 10 mg/kg), 2660 ng·h/mL. Moreover, the half-life in data set [1] (iv, 2 mg/kg) was 6.7 h; in data set [1] (po, 10 mg/kg), 6.4 h. This compound returned a bioavailability in data set [1] (po, 10 mg/kg) of 48%.

Turning to `[2H]C([2H])([2H])OCC12CCC(CN(c3nc(OC[C@@]45CCCN4C[C@H](F)C5)nc4c(F)c(-c5cc(O)cc6ccc(F)c(C#C)c56)ncc34)C1)N2` (stereo partly drawn) [Example 2, 5-ethynyl-6-fluoro-4-(8-fluoro-2-(((2R,7aS)-2-fluorotetrahydro-1H-pyrrolizin-7a(5H)-yl)methoxy)-4-(1-((methoxy-d3)methyl)-3,8-diazabicyclo [3.2.1]octan-3-yl)pyrido[4,3-d]pyrimidin-7-yl)naphthalen-2-ol], the half-inhibitory concentration (IC50) on KRAS^G12D/cRAF (class symbols) was in the range of 50 to 500 nM. Moreover, the IC50 in the data set with AGS cell (setting [2]) was below 50 nM. In data set [1] (po, 10 mg/kg), this compound gave an AUC(0-t) of 602 ng·h/mL and a half-life of 8.3 h.

`C#Cc1c(F)ccc2cc(O)cc(-c3ncc4c(N5CC6CCC(C5)N6)nc(OC[C@@]56CCCN5C[C@H](F)C6)nc4c3F)c12` [Positive Compounds, reference compound]: in data set [1] (iv, 2 mg/kg), the AUC(0-t) is 337 ng·h/mL and the half-life is 3.1 h. Besides, in data set [1] (po, 10 mg/kg), the AUC(0-t) was 40 ng·h/mL, the bioavailability was found to be 2.4% and the half-life is 1.6 h.

Take `[2H]C([2H])([2H])OC[C@]12CC[C@H](CN(c3nc(OC[C@@]45CCCN4C[C@H](F)C5)nc4c(F)c(-c5cc(O)cc6ccc(F)c(C#C)c56)nc(OCC)c34)C1)N2` [Example 51, 4-(5-ethoxy-8-fluoro-2-(((2R,7aS)-2-fluorotetrahydro-1H-pyrrolizin-7a(5H)-yl)methoxy)-4-((1S,5R)-1-((methoxy-d3)methyl)-3,8-diazabicyclo[3.2.1]octan-3-yl)pyrido[4,3-d]pyrimidin-7-yl)-5-ethynyl-6-fluoronaphthalen-2-ol]: in data set [1] (iv, 2 mg/kg), the AUC(0-t) came to 1570 ng·h/mL and the half-life is 5.4 h. In data set [1] (po, 10 mg/kg), the area under the curve AUC(0-t) worked out at 1120 ng·h/mL, the bioavailability was found to be 28% and the half-life was 6.2 h.

For `C#Cc1c(F)ccc2cc(O)cc(-c3ncc4c(N5CC6CCC(C=C)(C5)N6)nc(OC[C@@]56CCCN5C[C@H](F)C6)nc4c3F)c12` (stereo partly drawn) [Example 5, 5-ethynyl-6-fluoro-4-(8-fluoro-2-(((2R,7aS)-2-fluorotetrahydro-1H-pyrrolizin-7a(5H)-yl)methoxy)-4-(1-vinyl-3,8-diazabicyclo[3.2.1]octan-3-yl)pyrido[4,3-d]pyrimidin-7-yl)naphthalen-2-ol], the IC50 at KRAS^G12D/cRAF (numeric values) came to 72 nM. Also, the IC50 in the data set with AGS cell (setting [3]) is 15 nM. In data set [1] (po, 10 mg/kg), this compound showed an AUC(0-t) of 489 ng·h/mL and a half-life of 6.3 h.

As for `C#Cc1c(F)ccc2cc(O)cc(-c3ncc4c(N5CC6CCC(C(C)OC)(C5)N6)nc(OC[C@@]56CCCN5C[C@H](F)C6)nc4c3F)c12` (stereo partly drawn) [Example 12, 5-ethynyl-6-fluoro-4-(8-fluoro-2-(((2R,7aS)-2-fluorotetrahydro-1H-pyrrolizin-7a(5H)-yl)methoxy)-4-(1-(1-methoxyethyl)-3,8-diazabicyclo[3.2.1]octan-3-yl)pyrido[4,3-d]pyrimidin-7-yl) naphthalen-2-ol], the IC50 at KRAS^G12D/cRAF (class symbols) fell in the range of 50 to 500 nM. Further, the IC50 in the data set on AGS cell (setting [2]) is below 50 nM. Besides, in data set [1] (po, 10 mg/kg), the area under the curve AUC(0-t) was determined as 1740 ng·h/mL and the half-life is 7.2 h.

Turning to `C#Cc1c(F)ccc2cc(O)cc(-c3ncc4c(N5C[C@H]6CC[C@@](C=C)(C5)N6)nc(OC[C@@]56CCCN5C[C@H](F)C6)nc4c3F)c12` [Example 57, 5-ethynyl-6-fluoro-4-(8-fluoro-2-(((2R,7aS)-2-fluorotetrahydro-1H-pyrrolizin-7a(5 H)-yl)methoxy)-4-((1R,5R)-1-vinyl-3,8-diazabicyclo[3.2.1]octan-3-yl)pyrido[4,3-d]pyrimidin-7-yl)naphthalen-2-ol], the 50% inhibitory concentration (IC50) on KRAS^G12D/cRAF (numeric values) is 15 nM. The IC50 in the data set on AGS cell (setting [3]) came out at 8.1 nM. Besides, in data set [1] (iv, 2 mg/kg), the AUC(0-t) stood at 375 ng·h/mL and the half-life was 5.1 h. For the same compound, in data set [1] (po, 10 mg/kg), the area under the curve AUC(0-t) is 1790 ng·h/mL, the bioavailability was 95% and the half-life is 4.5 h.

With `[2H]C([2H])([2H])OCC12CCC(CN(c3nc(OC[C@@]45CCCN4C[C@H](F)C5)nc4c(F)c(-c5cc(O)c(F)c6ccc(F)c(C#C)c56)ncc34)C1)N2` (stereo partly drawn) [Example 14, 5-ethynyl-1,6-difluoro-4-(8-fluoro-2-(((2R,7aS)-2-fluorotetrahydro-1H-pyrrolizin-7a(5H)-yl)methoxy)-4-(1-((methoxy-d3)methyl)-3,8-diazabicyclo[3.2.1]octan-3-yl)pyrido[4,3-d]pyrimidin-7-yl)naphthalen-2-ol], the 50% inhibitory concentration (IC50) in the data set with AGS cell (setting [2]) was above 500 nM. In “in vivo”, this compound had an AUC(0-t) of 607 ng·h/mL and a half-life of 5.8 h.

For `C#Cc1c(F)ccc2cc(O)cc(-c3ncc4c(N5C[C@@H]6CC[C@](CC)(C5)N6)nc(OC[C@@]56CCCN5C[C@H](F)C6)nc4c3F)c12` [Example 54, 4-(4-((1R,5S)-1-ethyl-3,8-diazabicyclo[3.2.1]octan-3-yl)-8-fluoro-2-(((2R,7aS)-2-fluorotetrahydro-1H-pyrrolizin-7a(5H)-yl)methoxy)pyrido[4,3-d]pyrimidin-7-yl)-5-eth ynyl-6-fluoronaphthalen-2-ol], the IC50 worked out at 55 nM on KRAS^G12D/cRAF (numeric values) and 7.3 nM in the data set with AGS cell (setting [3]). The AUC(0-t) in data set [1] (iv, 2 mg/kg) worked out at 460 ng·h/mL; in data set [1] (po, 10 mg/kg), 1160 ng·h/mL. The half-life in data set [1] (iv, 2 mg/kg) was 7.7 h; in data set [1] (po, 10 mg/kg) it was 9.8 h. Also, in data set [1] (po, 10 mg/kg), the bioavailability was determined as 51%.

As to `C#Cc1c(F)ccc2cc(O)cc(-c3ncc4c(N5CC6CCC(COCC)(C5)N6)nc(OC[C@@]56CCCN5C[C@H](F)C6)nc4c3F)c12` (stereo partly drawn) [Example 32, 4-(4-(1-(ethoxymethyl)-3,8-diazabicyclo[3.2.1]octan-3-yl)-8-fluoro-2-(((2R,7aS)-2-fluorotetrahydro-1H-pyrrolizin-7a(511)-yl)methoxy)pyrido[4,3-d]pyrimidin-7-yl)-5-ethynyl-6-fluoronaphthalen-2-ol], the IC50 at KRAS^G12D/cRAF (class symbols) is 50 to 500 nM. In the data set on AGS cell (AGS, read-out: AGS cell IC50 (nM)), the IC50 was below 50 nM. In addition, in data set [1] (po, 10 mg/kg), the AUC(0-t) was determined as 2200 ng·h/mL and the half-life was 4.6 h.

As to `[2H]C([2H])([2H])[C@@]12CC[C@@H](CN(c3nc(OC[C@@]45CCCN4C[C@H](F)C5)nc4c(F)c(-c5cc(O)cc6ccc(F)c(C#C)c56)ncc34)C1)N2` [Example 43, 5-ethynyl-6-fluoro-4-(8-fluoro-2-(((2R,7aS)-2-fluorotetrahydro-1H-pyrrolizin-7a(5 H)-yl)methoxy)-4-((1R,5S)-1-(methyl-d3)-3,8-diazabicyclo[3.2.1]octan-3-yl)pyrido[4,3-d]pyrimidin-7-yl)naphthalen-2-ol], the IC50 on KRAS^G12D/cRAF (numeric values) was determined as 4.6 nM. Moreover, in the data set with AGS cell (setting [3]), the IC50 came to 1.5 nM. In data set [1] (iv, 2 mg/kg), this compound showed an exposure AUC(0-t) of 214 ng·h/mL and a half-life of 5.4 h. Moreover, in data set [1] (po, 10 mg/kg), the AUC(0-t) came to 733 ng·h/mL, the bioavailability turned out to be 5.8% and the half-life was 15.7 h.

Regarding `[2H]C([2H])([2H])C12CCC(CN(c3nc(OC[C@@]45CCCN4C[C@H](F)C5)nc4c(F)c(-c5cc(O)cc6ccc(F)c(C#C)c56)nc(OC)c34)C1)N2` (stereo partly drawn) [Example 38, 5-ethynyl-6-fluoro-4-(8-fluoro-2-(((2R,7aS)-2-fluorotetrahydro-1H-pyrrolizin-7a(5H)-yl)methoxy)-5-methoxy-4-(1-(methyl-d3)-3,8-diazabicyclo [3.2.1]octan-3-yl)pyrido [4,3-d]pyrimidin-7-yl)naphthalen-2-ol], the IC50 at KRAS^G12D/cRAF (class symbols) was below 50 nM. Besides, the 50% inhibitory concentration (IC50) with AGS cell (setting [2]) lay in the range of 50 to 500 nM. For the same compound, in data set [1] (po, 10 mg/kg), the area under the curve AUC(0-t) was 115 ng·h/mL and the half-life is 9.2 h.

The IC50 is the concentration at which inhibition is half-maximal. One may read the AUC(0-t) as exposure summed from dosing to a finite time, without extrapolation to infinity. Low readings indicate less exposure, high ones more exposure. The half-life is how long it takes for the measured level to halve. Broadly, the bioavailability is the share of a dose that reaches the circulation, judged against a reference dose that is usually intravenous. Low values mean poor availability, high ones good availability.
